These are literature values, as cited in patent US9066953B2, “Methods for increasing endurance and fat metabolism in humans” (Quality IP Holdings, LLC, priority 2012, dated 2015).

A value given as a limit tells only on which side of the number the result lay.

For data set [1], the system named is hGH. Particulars: for effect on hGH: other amino acids, literature.
The subject of data set [2] is GH. As to conditions: subcutaneous injection of 0.06 IU, GH deficient subjects.

As for `NCCC[C@H](N)C(=O)O` [ornithine], in data set [1], the “effect on hGH” value is “marked increases in hGH”.

Consider `N[C@@H](Cc1c[nH]cn1)C(=O)O` [histidine], for which the “effect on hGH” value in data set [1] is given as “marked increases in hGH”.

In the case of `NCCCC[C@H](N)C(=O)O` [lysine], in data set [1], the “effect on hGH” value was “marked increases in hGH”.

Turning to `CSCC[C@H](N)C(=O)O` [methionine], the “effect on hGH” value in data set [1] is “marked increases in hGH”.

On to `N=C(N)NCCC[C@H](N)C(=O)O` [arginine], for which the “elevation of serum hGH levels” value in data set [1] (30 g intravenous, in males) is listed as 8.6 fold. The “increase of hGH levels” value in data set [1] (intravenous infusion of 183 mg/kg body weight in females) is given as > 20 fold.

With “HGH: injected human growth hormone used in the treatment of GH deficient subjects”, the “mean levels of GH reached” value in data set [2] is 0.4 ng/mL.

Take `N[C@@H](Cc1ccccc1)C(=O)O` [phenylalanine]: the “effect on hGH” value in data set [1] is listed as “marked increases in hGH”.
